Source: US20260022089A1, “QUINONE-DERIVED COMPOUNDS AND USE THEREOF AGAINST LEISHMANIA SPP” (Universidad de la Laguna, priority 2022, published 2026)
≈ marks a conversion by molar mass, not a printed value. Like-named read-outs stand apart in the source and are kept apart here.

Columns and labels:
[1] = system: Leishmania amazonensis promastigotes; test: Leishmanicidal activity, alamarBlue fluorescence, 72 hours incubation with promastigotes; format: cell-based; settings: for SI (CC50/IC50): ratio of macrophage CC50 to L. amazonensis IC50
[2] = Toxicity against mouse cells, alamarBlue assay, 24 hours; format: cell-based; settings: murine macrophages, read-out: Macrophage Toxicity CC50
Method: To assess toxicity, all compounds were evaluated against mouse cells for 24 hours by means of the alamarBlue assay. […] The higher the value of CC50, the greater the amount of compound required to damage mouse cells, therefore, the lower the toxicity of the compound.

[3] = Leishmania amazonensis, promastigotes, 72 hours, alamarBlue, read-out: L. amazonensis IC50

CCCCCCCCCCCCCCCCOP(=O)([O-])OCC[N+](C)(C)C [Miltefosine, miltefosine, reference compound]
IC50 [1]: 2.64 µg/mL (≈ 6.48 µM) | IC50 ([1]; Leishmania amazonensis, read-out: IC50): 2.64 µg/mL (≈ 6.48 µM) | SI (CC50/IC50) [1]: 11.14 | CC50 at 24 h [2]: 29.4 ± 1.25 µg/mL (≈ 72.2 µM)

CC1=CC(=O)C=C(C2CCCC2)C1=O [SG-003, 2-cyclopentyl-6-methylcyclohexa-2,5-diene-1,4-dione]
IC50 [1, 3]: 0.34 ± 0.01 µg/mL (≈ 1.79 µM) | SI (CC50/IC50) [1]: 13.30 | CC50 at 24 h [2]: 4.53 ± 0.9 µg/mL (≈ 23.8 µM)

CC1=CC(=O)C(C2CCCC2)=CC1=O [SG-005, 2-cyclopentyl-5-methylcyclohexa-2,5-diene-1,4-dione]
IC50 [1, 3]: 0.13 ± 0.03 µg/mL (≈ 0.683 µM) | SI (CC50/IC50) [1]: 5.50 | CC50 at 24 h [2]: 0.72 ± 0.01 µg/mL (≈ 3.78 µM)

CC1=CC(=O)C=C(C2CCCCC2)C1=O [SG-007, 2-cyclohexyl-6-methylcyclohexa-2,5-diene-1,4-dione]
IC50 [1, 3]: 0.07 ± 0.02 µg/mL (≈ 0.343 µM) | SI (CC50/IC50) [1]: 7.40 | CC50 at 24 h [2]: 0.52 ± 0.09 µg/mL (≈ 2.55 µM)

CC1=CC(=O)C(C2CCCCC2)=CC1=O [SG-008, 2-cyclohexyl-5-methylcyclohexa-2,5-diene-1,4-dione]
IC50 [1, 3]: 0.06 ± 0.01 µg/mL (≈ 0.294 µM) | SI (CC50/IC50) [1]: 42.50 | CC50 at 24 h [2]: 2.55 ± 0.2 µg/mL (≈ 12.5 µM)

CCC(C)(C)C1=CC(=O)C(C)=CC1=O [SG-010, 2-methyl-5-(tert-pentyl)cyclohexa-2,5-diene-1,4-dione]
IC50 [1, 3]: 0.12 ± 0.02 µg/mL (≈ 0.624 µM) | SI (CC50/IC50) [1]: 37.50 | leishmanicidal activity ([1]; statement in words): shows leishmanicidal activity | CC50 at 24 h [2]: 4.51 ± 0.47 µg/mL (≈ 23.5 µM)

CCC(C)(CC)C1=CC(=O)C(C)=CC1=O [SG-011, 2-methyl-5-(3-methylpentan-3-yl)cyclohexa-2,5-diene-1,4-dione]
IC50 [1, 3]: 0.89 ± 0.06 µg/mL (≈ 4.31 µM) | SI (CC50/IC50) [1]: 13.80 | CC50 at 24 h [2]: 12.3 ± 0.77 µg/mL (≈ 59.5 µM)

CC1=CC(=O)C(C23CC4CC(CC(C4)C2)C3)=CC1=O [SG-012, 2-((3r,5r,7r)-adamantane-1-yl)-5-methylcyclohexa-2,5-diene-1,4-dione]
IC50 [1, 3]: 0.08 ± 0.01 µg/mL (≈ 0.312 µM) | SI (CC50/IC50) [1]: 9.75 | CC50 at 24 h [2]: 0.78 ± 0.02 µg/mL (≈ 3.04 µM)

CC1=CC(=O)C(C2CCCCCC2)=CC1=O [SG-013, 2-cycloheptyl-5-methylcyclohexa-2,5-diene-1,4-dione]
IC50 [1, 3]: 0.09 µg/mL (≈ 0.412 µM) | SI (CC50/IC50) [1]: 7.10 | CC50 at 24 h [2]: 0.92 ± 0.05 µg/mL (≈ 4.21 µM)

CC1=CC(=O)C=C(C2CCCCCC2)C1=O [SG-014, 2-cycloheptyl-6-methylcyclohexa-2,5-diene-1,4-dione]
IC50 [1, 3]: 0.7 ± 0.02 µg/mL (≈ 3.21 µM) | SI (CC50/IC50) [1]: 24.20 | CC50 at 24 h [2]: 8.95 ± 1.75 µg/mL (≈ 41 µM)
